Reference: paper PMC12040169 (PLOS Biology, 2025)

Assay: in vitro
Conditions: human, hela cells, % viability

SMILES	viability at 28.5 h, 10 µM [%]
COc1ccc([C@@]23CC[C@@H](NC(=O)Nc4nc(Cl)cc(Cl)n4)C[C@@H]2N(C)CC3)cc1OC [CBK067083T]	96.3
Clc1cnc2nc(NCC3CCCCC3)sc2c1 [CBK067087]	87.5
O=C1c2ccccc2C2(c3ccccc3)NCCN12 (centres unmarked) [CBK067098]	101
CC12CCC(=O)N1CCCN2 (centres unmarked) [CBK067102T]	94.5
O=S(=O)(Nc1cccc(-c2cnco2)c1)c1cccc2cccnc12 [CBK067104]	81
O=S(=O)(Nc1cccc(-c2cnco2)c1)c1ccc(Cl)c(Cl)c1 [CBK067117]	80.9
CN1CCOc2cc(S(=O)(=O)Nc3cccc(-c4cnco4)c3)ccc21 [CBK067119]	82.9
O=C(O)c1cc(S(=O)(=O)Nc2cccc(-c3cnco3)c2)c(F)cc1Cl [CBK067126]	90.5
Cc1c(S(=O)(=O)Nc2ccc3cn[nH]c3c2)cnn1-c1ccccc1 [CBK067149]	92.4
O=S(=O)(Nc1ccc2cn[nH]c2c1)c1ccc(-c2ccon2)s1 [CBK067157]	98.3
O=[N+]([O-])c1cc(S(=O)(=O)Nc2ccc3cn[nH]c3c2)ccc1Cl [CBK067160]	91.1
Cn1nc(-c2ccc(S(=O)(=O)n3cc(C#N)c(N)n3)s2)cc1C(F)(F)F [CBK067237]	91.2
Cc1cc(NS(=O)(=O)c2cccc(C(F)(F)F)c2)n(C)n1 [CBK067244]	94.1
Cc1cc(NS(=O)(=O)c2c(C)nn(C)c2Cl)n(C)n1 [CBK067245]	99.9
Cc1cc(NS(=O)(=O)c2cnn(-c3ccccc3)c2C)n(C)n1 [CBK067252]	107
O=S(=O)(Nc1cccc(Cl)c1Cl)c1cccc2nsnc12 [CBK067296]	86.3
Cc1nn(C)c(Cl)c1S(=O)(=O)NCCc1c[nH]c2ccccc12 [CBK067310]	85.2
Cc1noc(C)c1S(=O)(=O)NCCc1c[nH]c2ccccc12 [CBK067311]	101
O=C1N=C(NC2CCCCCC2)SC1CC(=O)N1CCOC12CCCCC2 (centres unmarked) [CBK067355]	94
Cc1cc(NS(=O)(=O)c2ccccc2Br)n(C)n1 [CBK067376]	102
CCCCN(C(=O)CC1SC(NC2CCCCCC2)=NC1=O)c1ccccc1 (centres unmarked) [CBK067392]	92.4
O=C1N=C(NC2CCCCCC2)SC1CC(=O)N(Cc1ccccc1)c1ccccc1 (centres unmarked) [CBK067394]	85.2
COc1ccc([C@@]23CC[C@@H](NC(=O)Nc4ccc(F)c(F)c4)C[C@@H]2N(C)CC3)c(F)c1OC [CBK067405]	102

SMILES	viability at 28.5 h, 10 µM [%]
O=C(COc1ccccc1)NCC1(c2ccccc2)CCOCC1 [CBK067407]	103
O=C(NCC1(c2ccccc2)CCOCC1)c1ccno1 [CBK067408]	98.2
COc1ccc(C)cc1S(=O)(=O)Nc1cc(OCCN2CCOCC2)c2occc2c1 [CBK067419C]	87.7
O=C1CCC(=O)N1Cc1cccc(-c2ccnc(NS(=O)(=O)c3ccc(Cl)cc3)n2)c1 [CBK067436]	86.3
COc1ccc(S(=O)(=O)Nc2nccc(-c3ccc(CN4C(=O)CCC4=O)cc3)n2)cc1 [CBK067438]	91.5
CC(C)CN(C)CC(=O)NC1(c2ccccc2)CCC1 [CBK067455T]	111
O=C(NCCC1SC(NC2CCCCCC2)=NC1=O)Nc1ccc(F)cc1F (centres unmarked) [CBK067469]	99.7
Cc1ccc(S(=O)(=O)Nc2ccnc(-c3ccc(CO)cc3)n2)cc1 [CBK067477]	90.4
O=[N+]([O-])c1cnc(NS(=O)(=O)c2ccc(Oc3ccccc3)cc2)s1 [CBK067535]	102
O=[N+]([O-])c1cnc(NS(=O)(=O)c2ccc(-c3cc(C(F)(F)F)on3)s2)s1 [CBK067545]	103
Cc1noc(C)c1S(=O)(=O)Nc1nc(=O)[nH]cc1F [CBK067569]	103
O=c1nc(NS(=O)(=O)c2ccc(Oc3ccccc3)cc2)c(F)c[nH]1 [CBK067571]	89.3
O=c1nc(NS(=O)(=O)c2ccccc2Br)c(F)c[nH]1 [CBK067573]	76.6
Cn1nc(-c2ccc(S(=O)(=O)Nc3nc(=O)[nH]cc3F)s2)cc1C(F)(F)F [CBK067574]	96.8
Nc1ncc(-c2ccsc2)c2cccnc12 [CBK067580]	97.5
CSc1ccc(-c2cnc(N)c3ncccc23)cc1 [CBK067584]	68.4
COc1cc(F)ccc1-c1cnc(N)c2ncccc12 [CBK067585]	81.4
CC(C)(C)c1ccc(-c2cnc(N)c3ncccc23)cc1 [CBK067589]	99.2
Nc1ncc(-c2cccc(C(F)(F)F)c2)c2cccnc12 [CBK067590]	89.2
Nc1ncc(-c2ccc(-c3ccccc3F)cc2)c2cccnc12 [CBK067597]	76.5
Nc1cc2cccnc2nc1-c1ccncc1 [CBK067601]	96.5
CC(C)(C)c1ccc(-c2nc3ncccc3cc2N)cc1 [CBK067611]	94.4
Nc1cc2cccnc2nc1-c1ccc(OC(F)(F)F)cc1 [CBK067616]	93.8

SMILES	viability at 28.5 h, 10 µM [%]
Nc1ccc2ccc(-c3ccncc3)nc2n1 [CBK067622]	82.8
Nc1ccc2ccc(-c3cccc(C(F)(F)F)c3)nc2n1 [CBK067629]	97.5
Nc1ccc2c(-c3ccsc3)ccnc2n1 [CBK067637]	95.5
Nc1ccc2c(-c3cc(F)cc(F)c3)ccnc2n1 [CBK067638]	93.4
O=C(CC1SC(NC2CCCCCC2)=NC1=O)NCc1c(F)cccc1Cl (centres unmarked) [CBK067656]	89.7
Cn1c(SCc2cccnc2)nnc1-c1cccs1 [CBK067706]	93.1
Cn1cnnc1SCC(=O)c1cccc(C(F)(F)F)c1 [CBK067718]	93.5
CSc1nnc(-c2ccco2)n1-c1cccc(Cl)c1C [CBK067723]	93.1
CCOC(=O)c1sc(-c2ccccc2)nc1OCc1ccccc1Cl [CBK067727]	95.8
O=C(O)Cc1sc(-c2ccc(Cl)cc2)nc1O [CBK067730]	93.1
CCOC(=O)c1nc(-c2ccccc2)sc1C(C)=O [CBK067739]	98.8
COC(=O)COc1ccccc1/C=C1\SC(c2ccc(C)cc2)=NC1=O [CBK067741]	92.6
COC(=O)c1sccc1OCc1nnc(-c2ccc(Cl)c(Cl)c2)o1 [CBK067742]	96.5
CSc1oc(-c2ccccc2)nc1C(N)=O [CBK067744]	98.4
CCOC(=O)c1sc(NC(=O)c2ccccc2Br)nc1C [CBK067745]	90.2
NC(=O)c1csc(-c2ccc(F)cc2F)n1 [CBK067749]	68.6
CCCC1=NNC(=O)C1Cc1c(F)cccc1Cl (centres unmarked) [CBK067753]	88.8
CC1=NNC(=O)C1Cc1c(Cl)cccc1Cl (centres unmarked) [CBK067754]	109
CC1=NNC(=O)C1Cc1ccc(F)cc1 (centres unmarked) [CBK067755]	97.4
CC1=NNC(=O)C1C(c1ccc(Cl)cc1Cl)C1C(=O)NN=C1C (centres unmarked) [CBK067756]	109
O=C1NN=C(Cc2ccccc2)C1c1ccccc1 (centres unmarked) [CBK067757]	95.6
O=C1NN=C(O)C1Cc1ccccc1 (centres unmarked) [CBK067758]	101
Cc1nn(C)c(O)c1Cc1c(F)cccc1Cl [CBK067759]	92.5

SMILES	viability at 28.5 h, 10 µM [%]
CCCC1=NNC(=O)/C1=C\c1cnc[nH]1 [CBK067767]	105
CC1=NN(c2ccccc2)C(=O)/C1=C\c1ccc(Cl)cc1 [CBK067772]	96.7
CC1=NN(c2ccccc2F)C(=O)C1 [CBK067773]	96.8
COC(=O)c1csc(-c2ccc(Cl)cc2Cl)n1 [CBK067776]	103
O=C(O)c1csc(-c2ccc(Cl)cc2Cl)n1 [CBK067777]	90
CC(C)CN(CCc1ccc(O)cc1)CC(=O)NC1(c2ccccc2)CCC1 [CBK067781T]	100
Cc1nn(C)c(Cl)c1S(=O)(=O)Nc1cc(N2CCN(C(=O)OC(C)(C)C)CC2)c2occc2c1 [CBK067787]	95.8
CN1CC[C@]2(c3ccc4c(c3)nnn4C)CC[C@@H](NC(=O)Nc3cc(F)cc(C(F)(F)F)c3)C[C@H]12 [CBK067800]	99.2
CC1(C)SC(NCC2CCCCC2)=NC1=O [CBK067808]	91.2
CN(C)C(=O)c1sc2ccccc2c1Cl [CBK067817]	82.4
COc1ccc(C)cc1S(=O)(=O)Nc1cc(NCCCN2CCOCC2)c2occc2c1 [CBK067837C]	105
O=S(=O)(Nc1cc(NCCCN2CCOCC2)c2occc2c1)c1ccccc1C(F)(F)F [CBK067838C]	94.9
COc1ccc(C)cc1S(=O)(=O)N(CCO)c1cc(N2CCNCC2)c2occc2c1 [CBK067894C]	86
Cc1ccc(S(=O)(=O)Nc2ccnc(-c3ccc(CN4C(=O)CSC4=O)cc3)n2)cc1 [CBK067925]	96.1
COc1ccc([C@@]23CC[C@@H](NC(=O)Nc4ccc(F)c(F)c4)C[C@@H]2N(C)CC3)cc1C#N [CBK067952T]	107
CC(C)(C)c1ccc(-c2nnc(SCC(=O)c3ccc(F)cc3)o2)cc1 [CBK067988]	102
O=C(Nc1nc(-c2ccccc2)cs1)c1ccc(Br)cc1 [CBK068003]	82.4
O=C(O)CSc1nnc(-c2ccc(F)cc2)o1 [CBK068115]	104
Cc1cccc(C)c1NC(=O)C(C)Sc1nc2ccccc2c(=O)n1CC1CCCO1 (centres unmarked) [CBK068151]	95
Cc1nnc(NS(=O)(=O)c2ccc(Br)cc2)s1 [CBK068266]	101
CCOc1ccc(-c2nnn(CC(N)=O)n2)cc1 [CBK068283]	110
O=C(c1ccccc1)N1CCN(C(=O)c2ccco2)CC1 [CBK068314]	96.6
CC(=O)Nc1ccc(S(=O)(=O)N2CCN(C(=O)c3ccco3)CC2)cc1 [CBK068319]	90.5
